Here are results for five compounds from patent US4092415A, “Microorganism combatting quinoxaline-di-N-oxide carboxamides” (Ciba-Geigy Corporation, priority 1976, dated 1978).

Read-outs that look alike come from different tables or passages of the source.

Holding throughout (format): in vivo
Assay [1] relates to Staph. aureus Smith. Put plainly: Intraperitoneally infected white mice, Staph. aureus Smith. The following applies: Staphylococcus aureus, with infection and 3 hours later, read-out: average effective dose/confidence interval. On the procedure:
(§1) In tests carried out on white mice, the intraperitoneally infected animals are treated subcutaneously and perorally as follows:
(§2) The administration is effected in doses of 1 mg, 3 mg, 10 mg, 30 mg, 100 mg or 300 mg of active substance per kg of body weight initially simultaneously with the infection and a second time 3 hours later.

The test system of assay [2] is E. coli 205. Put plainly: Intraperitoneally infected white mice, E. coli 205. The following applies: Escherichia coli, with infection and 3 hours later, read-out: average effective dose/confidence interval. On the procedure:
as §1, §2

Assay [3] has as its system Salm. ty.-m. Briefly: Intraperitoneally infected white mice, Salm. ty.-m. The following applies: Mus musculus, with infection and 3 hours later, read-out: average effective dose/confidence interval. On the procedure:
as §1, §2

For assay [4], the system named is Past. mult. Put plainly: Intraperitoneally infected white mice, Past. mult. The following applies: Mus musculus, with infection and 3 hours later, read-out: average effective dose/confidence interval. On the procedure: as §1, §2
In assay [5] the test system is simultaneously infected hens. Briefly: Single peroral administration to simultaneously infected hens. The following applies: Gallus gallus, po, single peroral administration by probang, simultaneous with infection. The text has this:
Single peroral administration by means of a probang to
simultaneously infected hens in mg of active substance

For assay [6], the system named is Strept. pyog. Aronson. Briefly: Intraperitoneally infected white mice, Strept. pyog. Aronson. The following applies: Mus musculus; for ED50: with infection and 3 hours later, read-out: average effective dose/confidence interval; for ED20: value marked (ED 20). On the procedure: as §1, §2
Assay [7] concerns Pseud. aerug. Briefly: Intraperitoneally infected white mice, Pseud. aerug. The following applies: Mus musculus, with infection and 3 hours later, read-out: average effective dose/confidence interval. On the procedure: as §1, §2
Assay [8] concerns piglets. Put plainly: Demonstration of growth: piglets fed 28 days with medicated feed. The following applies: 50 ppm in feed. The text has this:
A group of eight piglets (four .male. and four .female.) was fed for 28 days with a normal feed containing 17.6% of raw protein and 3.4% of crude fibres and to which 50 ppm of 1,4-dioxido-3-methyl-quinoxaline(2)-N-(2'-cyanoethyl)-carboxamide (Example 1) had been added. The average initial weight of the individual test animals was approx. 9 kg at the start of the test. At the conclusion of the test the animals were weighed individually and the feed consumption determined in groups. For control purposes, a parallel test following the same procedure was carried out using the same feed without the addition of active substance.

Regarding `COC(=O)N/N=C/c1c[n+]([O-])c2ccccc2[n+]1[O-]` [E, reference compound], the ED50 worked out at 35 mg/kg in assay [1] (2 × po.); 2500 mg/kg in assay [1] (2 × sc.); 30 mg/kg in assay [2] (2 × po.); 300 mg/kg in assay [2] (2 × sc.); 25 mg/kg in assay [3] (2 × po.); 140 mg/kg in assay [3] (2 × sc.). In addition, the results for the ED50 in assay [4] (2 × po.), in assay [4] (2 × sc.) and in assay [5] were about 30 mg/kg, about 100 mg/kg and 9 mg/kg, respectively.

As for `Cc1c(C(=O)NCC#N)[n+]([O-])c2ccccc2[n+]1[O-]` [A, 1,4-dioxido-3-methyl-quinoxaline(2)-N-(cyanomethyl)-carboxamide], the ED50 in assay [1] (2 × po.) turned out to be 12 mg/kg; in assay [1] (2 × sc.), 10 mg/kg; in assay [6] (2 × po.), 265 mg/kg; in assay [2] (2 × po.) it was 3.5 mg/kg; in assay [2] (2 × sc.) it was 3 mg/kg; in assay [3] (2 × po.), 4.2 mg/kg. In addition, the ED50 in assay [3] (2 × sc.) came out at 3.9 mg/kg; in assay [4] (2 × po.) it was 3.4 mg/kg; in assay [4] (2 × sc.), 3 mg/kg; in assay [7] (2 × po.), 75 mg/kg; in assay [7] (2 × sc.) it was 120 mg/kg; in assay [5], 2 mg/kg. In assay [6] (2 × sc.), this compound showed an ED20 of 205 mg/kg.

As to `Cc1c(C(=O)NCCC#N)[n+]([O-])c2ccccc2[n+]1[O-]` [C, 1,4-Dioxido-3-methyl-quinoxaline(2)-N-(2'-cyanoethyl)-carboxamide], the ED50 came to 27 mg/kg in assay [1] (2 × po.); 18 mg/kg in assay [1] (2 × sc.); 275 mg/kg in assay [6] (2 × po.); 400 mg/kg in assay [6] (2 × sc.); 6.6 mg/kg in assay [2] (2 × po.); 5.5 mg/kg in assay [2] (2 × sc.). Further, the ED50 came out at 11 mg/kg in assay [3] (2 × po.); 10 mg/kg in assay [3] (2 × sc.); 3.9 mg/kg in assay [4] (2 × po.); 5.5 mg/kg in assay [4] (2 × sc.); 235 mg/kg in assay [7] (2 × po.); 105 mg/kg in assay [7] (2 × sc.). For the same compound, in assay [8] (average values, control 1.90), the “Feed consumption index abs.” value is reported as 1.69 kg of feed consumed per kg of. The “Daily growth rate abs.” value in assay [8] (average values, control 231 g) is recorded as 305 g. Further, the “Daily growth rate rel.” value in assay [8] (control 100%) was determined as 132%. In assay [8] (control 100%), the “Feed consumption index rel.” value is on record as 88,9%.

Regarding `Cc1c(C(=O)NC(C)(C)C#N)[n+]([O-])c2ccccc2[n+]1[O-]` [B], the ED50 in assay [1] (2 × po.) was 18 mg/kg; in assay [1] (2 × sc.) it was 16 mg/kg; in assay [2] (2 × po.) it was 18 mg/kg; in assay [2] (2 × sc.), 11 mg/kg; in assay [3] (2 × po.) it was 25 mg/kg; in assay [3] (2 × sc.) it was 11 mg/kg. Also, the ED50 was 5.1 mg/kg in assay [4] (2 × po.), 3.2 mg/kg in assay [4] (2 × sc.), over 300 mg/kg in assay [7] (2 × po.) and over 100 mg/kg in assay [7] (2 × sc.). For the same compound, the ED20 was 170 mg/kg in assay [6] (2 × po.) and 140 mg/kg in assay [6] (2 × sc.).

On to `Cc1c(C(=O)NCCO)[n+]([O-])c2ccccc2[n+]1[O-]` [D, reference compound], for which the ED50 worked out at 60 mg/kg in assay [1] (2 × po.); 40 mg/kg in assay [1] (2 × sc.); 410 mg/kg in assay [6] (2 × po.); 425 mg/kg in assay [6] (2 × sc.); 10 mg/kg in assay [2] (2 × po.); 9 mg/kg in assay [2] (2 × sc.). Besides, the ED50 in assay [3] (2 × po.) was 13 mg/kg; in assay [3] (2 × sc.), 10 mg/kg; in assay [4] (2 × po.) it was 15 mg/kg; in assay [4] (2 × sc.), 14 mg/kg; in assay [7] (2 × po.), 490 mg/kg; in assay [7] (2 × sc.), 210 mg/kg. In addition, in assay [5], the ED50 was determined as 5.3 mg/kg.
